Read-outs that look alike come from different tables or passages of the source.
How the values were obtained:
[1] = in vivo cassette mouse model: brain and plasma concentrations following oral dosing; settings: male CD-1 mice, 2.5 mg/kg per compound; for Kp at 3 h: brain and plasma, read-out: (b) Brain:Plasma ratio at 3 hours
Description: (b) Evaluation of Brain and Plasma Concentrations in an In Vivo Cassette Mouse Model
The compounds of this invention were evaluated in an in vivo cassette mouse model to determine brain and plasma concentrations following oral dosing. This is an industry-standard and recognised means to assess brain penetration of small molecules (for recent literature article, refer to: in vitro permeability analysis, pharmacokinetic and brain distribution study in mice of imperatorin, isoimperatorin and cnidilin in Radix Angelicae Dahuricae, Fitoterapia, Volume 85, March 2013, Pages 144-153). It is also recognised that higher brain concentrations (and higher ratios of brain:plasma concentration) lead to greater exposure in the brain—this is clearly advantageous if the brain is the site of action.
For a single cassette study, male CD-1 mice were used (n=3 per timepoint, three timepoints: 1.0 hr, 3.0 hr and 8.0 hr).
5 compounds were dosed PO per cassette (dose level 2.5 mg/kg per compound, dose conc. 0.25 mg/ml, dose volume 10.0 ml/kg).
Formulation used to solubilize compounds: 10% DMSO/90% hydroxypropyl-β-cyclodextrin (20% w/v aqueous)
Sampling was terminal and plasma and brain matrices were generated. To prepare plasma samples, protein was precipitated using acetonitrile. To prepare brain samples, homogenisation and protein precipitation was performed with acetonitrile. Samples were analysed using HPLC-TOF MS using electrospray ionisation.
The brain and plasma concentrations and brain-plasma ratios observed for the compounds tested are set out in the table below.

p70S6K (h) = p70S6K (h) (Homo sapiens (Human), UniProt P23443); experiment: p70S6K (h) kinase assay (radiometric, [γ-33P-ATP]); format: biochemical; settings: read-out: (a) p70S6K1 IC50
Description: (a) Determination of p70S6 Inhibitory Activity
The ability of compounds of the invention to inhibit P70S6 kinase may be determined using the protocol below.
20 mM MOPS, 1 mM EDTA, 0.01% Brij-35, 5% Glycerol, 0.1% b-mercaptoethanol, 1 mg/mL BSA
In a final reaction volume of 25 μL, p70S6K (h) (5-10 mU) is incubated with 8 mM MOPS pH 7.0, 0.2 mM EDTA, 100 μM KKRNRTLTV, 10 mM Mg acetate and [γ-33P-ATP](specific activity approx. 500 cpm/pmol, concentration as required). The reaction is initiated by the addition of the MgATP mix. After incubation for 40 minutes at room temperature, the reaction is stopped by the addition of 5 μL of a 3% phosphoric acid solution. 10 μL of the reaction mixture is then spotted onto a P30 filtermat and washed three times for 5 minutes in 75 mM phosphoric acid and once in methanol prior to drying and scintillation counting.

MDA-MB-231 cells = experiment: in vivo model of triple negative breast cancer (TNBC): tumour initiation and metastasis; set-up: species or system female athymic nude mice
Excerpt: (c) Evaluation of Efficacy of Compounds in Counter-Acting Tumour Initiation and Metastasis in an In Vivo Model of Triple Negative Breast Cancer (TNBC)
It is known that S6K1 has a crucial role in the recurrence of TNBC cancers following surgery, mainly through the activity of S6K1 in promoting survival of cancer cells in the host via phosphorylation and activation of the anti-apoptotic protein Bcl2 and of Gli1 (Belletti 2014). In addition, S6K1 promotes metastasis of TNBC cells (Akar 2010, Hung 2014).
In order to test the efficacy of an inhibitor of S6K1 in an in vivo model of tumour initiation and metastasis, the following experiment was established:
A total of 22 female athymic nude mice (Hsd:Athymic Nude-Foxn1^nu) were purchased from Harlan (UK) and acclimatised for 7 days prior to study commencement. Animals were housed in IVC cages (5 per cage) with individual mice identified by ear punch. All animals were allowed free access to a standard certified commercial diet and sanitised water during the study. The holding room was maintained under standard conditions: 20-24° C., 40-70% humidity and a 12 h light/dark cycle.
On day −1, animals were randomly assigned to treatment groups as indicated in the table below, and drug treatment commenced. On day 0, MDA-MB-231 cells (1×10^6 in matrigel) were implanted into the second mammary fat pad.
The dosing route was PO and the formulation was as follows: 10% DMSO/90% hydroxypropyl-β-cyclodextrin (20% w/v aqueous).
During the experiment, the following outcome measures were assessed:
(1) Time to palpation of tumour (latency) (2) tumour volume (3) tumour and organ weights as a measure of metastasis (4) visual appearance of metastatic nodules in the lungs.
At necroscopy the lungs of the vehicle and treated animals were examined for presence of metastatic nodules: […]

FXS mice (Fmr1 KO) = experiment: audiogenic seizure assay (AGS), in vivo model of Fragile X Syndrome
Excerpt: (d) Evaluation of Compounds in the Audiogenic Seizure Assay, an In Vivo Model of Fragile X Syndrome (FXS)
Seizures occur in conjunction with FXS and autism in up to one-quarter of children with these disorders (Berry-Kravis E (2002) Epilepsy in fragile X syndrome. Dev. Med. Child Neurol. 44(11):724-728). […] The audiogenic seizure assay (AGS) is a well-documented mouse model of FXS (Audiogenic seizures susceptibility in transgenic mice with fragile X syndrome, Epilepsia. 2000 January; 41(1):19-23). In such a model it is possible to dose compounds to observe effects on susceptibility of the mice to audiogenic seizures. The following AGS experiment was set up to test the efficacy of compounds of this application:
The following experiment design was used:
Strain of FXS mouse used: FVB background
Vehicle used: 10% DMSO/90% hydroxypropyl-β-cyclodextrin (20% w/v aqueous)
Animals were assessed in AGS following 7 consecutive days of dosing.
The experimental chamber consisted of a plastic cage of dimensions 25×25×47 cm in which a doorbell (Electrical bell Heath Zenith, model 172C-A) had been mounted on the cage roof.
Mice were taken from their housing room one by one and transferred into the experimental chamber and allowed to explore the novel environment (basal noise […]) for a period of 30 seconds after which point the bell was rung (124 dB) for a period of 60 seconds.
The resulting motor responses were classified using a scale modified from the one originally described by Jobe et al. (1973): no response (NR: pause or continuous exploration), wild running (WR), seizure (S) or respiratory arrest and/or death (RA). The motor response rate is defined as the percentage of animals per group responding to the stimulus.

[2] = brain, read-out: (b) Brain conc. at 3 hours
[3] = plasma, read-out: (b) Plasma conc. at 3 hours
[4] = mono-HCl salt, 100 mg/kg p.o. BID, 21 days, compared to control
[5] = FXS (Fmr1 KO) mice, n=10, 50 mg/kg QD x 7 PO, mono-HCl salt, bell 124 dB for 60 seconds
[6] = FXS mice, FVB background, following 7 consecutive days of dosing

Chain of p70S6K (h) (P23443 whole entry): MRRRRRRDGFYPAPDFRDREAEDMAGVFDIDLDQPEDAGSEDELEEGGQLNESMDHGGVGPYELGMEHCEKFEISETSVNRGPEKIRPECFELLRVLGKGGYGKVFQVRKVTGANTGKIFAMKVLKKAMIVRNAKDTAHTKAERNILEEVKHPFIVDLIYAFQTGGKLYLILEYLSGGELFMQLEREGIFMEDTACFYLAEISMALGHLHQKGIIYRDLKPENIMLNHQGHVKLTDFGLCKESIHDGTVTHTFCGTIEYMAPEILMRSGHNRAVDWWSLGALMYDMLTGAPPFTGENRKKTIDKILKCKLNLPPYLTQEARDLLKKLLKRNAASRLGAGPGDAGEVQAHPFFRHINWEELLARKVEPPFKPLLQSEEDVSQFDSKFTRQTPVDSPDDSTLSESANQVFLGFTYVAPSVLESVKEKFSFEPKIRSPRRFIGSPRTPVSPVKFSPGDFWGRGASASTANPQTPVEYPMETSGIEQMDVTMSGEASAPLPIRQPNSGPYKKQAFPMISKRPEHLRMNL

SMILES	Kp at 3 h [1]	concentration at 3 h [1, 2] [nM]	concentration at 3 h [1, 3] [nM]	IC50 (p70S6K (h)) [nM]	Mean no. of lung nodules per animal (MDA-MB-231 cells; 100 mg/kg BID x 21, lungs examined at necroscopy, mono-HCl salt)	metastatic burden in the lungs (MDA-MB-231 cells; at necroscopy, spontaneous metastasis from a TNBC primary tumour)	tumour weight (MDA-MB-231 cells; day 21, mono-HCl salt, 100 mg/kg p.o. BID, compared to vehicle)	weight of liver (MDA-MB-231 cells; day 21, mono-HCl salt, 100 mg/kg p.o. BID, compared to vehicle treated group)	rate of incidence of tumour (MDA-MB-231 cells; [4])	time until appearance (palpation) of tumour (MDA-MB-231 cells; [4])	tumour volume (MDA-MB-231 cells; [4])	NR (no response: pause or continuous exploration), number of animals (FXS mice (Fmr1 KO); [5])	RA (respiratory arrest and/or death), number of animals (FXS mice (Fmr1 KO); [5])	S (seizure), number of animals (FXS mice (Fmr1 KO); [5])	WR (wild running), number of animals (FXS mice (Fmr1 KO); [5])	incidence of audiogenic seizures (FXS mice (Fmr1 KO); [6])	severity of response (audiogenic seizure) (FXS mice (Fmr1 KO); [6])
C[C@@H](Nc1ncc2cc(-c3ncnc4[nH]ncc34)ccc2n1)c1ccccc1 [Example 1, ((R)-1-Phenyl-ethyl)-[6-(1H-pyrazolo[3,4-d]pyrimidin-4-yl)-quinazolin-2-yl]-amine]	2.7	1600	580	13	0	effective in reducing the metastatic burden in the lungs	weighed significantly less	reduction in weight of liver	decreases the rate of incidence	delays time until appearance (palpation) of tumour	significant reduction in volume of tumours	9	0	0	1	reduced	reduced
C[C@@H](Nc1ncc2cc(-c3ncnc4[nH]ncc34)ccc2n1)c1ccc(F)c(F)c1 [Example 19, [(R)-1-(3,4-Difluoro-phenyl)-ethyl]-[6-(1H-pyrazolo[3,4-d]pyrimidin-4-yl)-quinazolin-2-yl]-amine]	4	2420	600	10													
C[C@@H](Nc1ncc2cc(-c3ncnc4[nH]ncc34)ccc2n1)c1ccccc1F [Example 28, [(R)-1-(2-Fluoro-phenyl)-ethyl]-[6-(1H-pyrazolo[3,4-d]pyrimidin-4-yl)-quinazolin-2-yl]-amine]	2.6	1070	420	15													

— patent publication US10730882B2, “2-aminoquinazoline derivatives as P70S6 kinase inhibitors” (SENTINEL ONCOLOGY LIMITED, priority 2015, dated 2020)
